Results taken from ChEMBL document CHEMBL1201862, “PubChem BioAssay data set” (2004).
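48-hour exposure; five concentrations; linearly interpolated endpoints. GI50 = concentration required for 50% inhibition of growth.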 Calls of active or inactive are those of the source. No stated cut-off is given here; in the data, active = GI50 up to about 1.1 µM and inactive = higher.

What was measured:
Assay in all cases: NCI tumour cell line growth inhibition, 48 h
SW-620 = test system: SW-620
UACC-257 = test system: UACC-257
RXF 393 = test system: RXF 393
MDA-N = test system: MDA-N
RPMI-8226 = test system: RPMI-8226
Malme-3M = test system: Malme-3M
LOX IMVI = test system: LOX IMVI
MDA-MB-435 = test system: MDA-MB-435
CAKI-1 = test system: CAKI-1
OVCAR-5 = test system: OVCAR-5
SF-539 = test system: SF-539
SN12C = test system: SN12C
TK-10 = test system: TK-10
NCI-H23 = test system: NCI-H23
PC-3 = test system: PC-3
DU-145 = test system: DU-145
MCF7 = test system: MCF7
SK-MEL-5 = test system: SK-MEL-5
U-251 = test system: U-251
BT-549 = test system: BT-549

Row | Compound | GI50 (SW-620) | GI50 (UACC-257) | GI50 (RXF 393) | GI50 (MDA-N) | GI50 (RPMI-8226) | GI50 (Malme-3M) | GI50 (LOX IMVI) | GI50 (MDA-MB-435) | GI50 (CAKI-1) | GI50 (OVCAR-5) | GI50 (SF-539) | GI50 (SN12C) | GI50 (TK-10) | GI50 (NCI-H23) | GI50 (PC-3) | GI50 (DU-145) | GI50 (MCF7) | GI50 (SK-MEL-5) | GI50 (U-251) | GI50 (BT-549)
1 | CCN(CC)CCN1c2ccccc2Sc2ccc3ccccc3c21 | 11.4 µM (inactive) | 7.69 µM (inactive) | 2.12 µM (inactive) | 12.3 µM (inactive) | 3.33 µM (inactive) | 15.4 µM (inactive) | 7.52 µM (inactive) | 8.63 µM (inactive) | 8.89 µM (inactive) | 9.1 µM (inactive) | 13.6 µM (inactive) | 11.7 µM (inactive) | 1.67 µM (inactive) | 15.5 µM (inactive) | 6.73 µM (inactive) | 3.93 µM (inactive) | 9.27 µM (inactive) | 4.72 µM (inactive) | 9.38 µM (inactive) | 14.9 µM (inactive)
2 | CCc1nn(CN2CCOCC2)c(=S)n1/N=C/c1ccc(-c2ccc(Cl)cc2)o1 | > 100 µM (inactive) | > 100 µM (inactive) | > 100 µM (inactive) | > 100 µM (inactive) | 51.5 µM (inactive) | – | > 100 µM (inactive) | > 100 µM (inactive) | > 100 µM (inactive) | > 100 µM (inactive) | > 100 µM (inactive) | – | > 100 µM (inactive) | > 100 µM (inactive) | > 100 µM (inactive) | > 100 µM (inactive) | > 100 µM (inactive) | > 100 µM (inactive) | > 100 µM (inactive) | > 100 µM (inactive)
3 | COc1cc2c(c(OC)c1OC)-c1ccc(SC)c(=O)cc1[C@@H](NC(=O)C(F)(F)F)CC2 | < 0.01 µM (active) | < 0.01 µM (active) | < 0.01 µM (active) | < 0.01 µM (active) | < 0.01 µM (active) | < 0.01 µM (active) | < 0.01 µM (active) | < 0.01 µM (active) | < 0.0139 µM (active) | 0.259 µM (active) | < 0.01 µM (active) | < 0.01 µM (active) | 8.63 µM (inactive) | < 0.01 µM (active) | < 0.01 µM (active) | < 0.01 µM (active) | < 0.01 µM (active) | < 0.01 µM (active) | < 0.01 µM (active) | 0.0118 µM (active)
4 | CSc1ncc2c(C#N)c3sc4ccccc4n3c(=O)c2n1 | 22 µM (inactive) | > 100 µM (inactive) | > 100 µM (inactive) | > 100 µM (inactive) | > 100 µM (inactive) | > 100 µM (inactive) | > 100 µM (inactive) | > 100 µM (inactive) | 73.8 µM (inactive) | > 100 µM (inactive) | 40.1 µM (inactive) | > 100 µM (inactive) | 61.1 µM (inactive) | > 100 µM (inactive) | > 100 µM (inactive) | > 100 µM (inactive) | 16.8 µM (inactive) | 64.6 µM (inactive) | 24 µM (inactive) | > 100 µM (inactive)
5 | CN(C)CCNc1ncnc2[nH]c(-c3ccc4ccccc4c3)nc12 | > 100 µM (inactive) | > 100 µM (inactive) | > 100 µM (inactive) | > 100 µM (inactive) | > 100 µM (inactive) | > 100 µM (inactive) | > 100 µM (inactive) | > 100 µM (inactive) | > 100 µM (inactive) | > 100 µM (inactive) | – | > 100 µM (inactive) | > 100 µM (inactive) | > 100 µM (inactive) | > 100 µM (inactive) | > 100 µM (inactive) | > 100 µM (inactive) | > 100 µM (inactive) | > 100 µM (inactive) | > 100 µM (inactive)
6 | CC(=O)OCC1OC(c2nnc(C)o2)=CC(OC(C)=O)C1OC(C)=O (centres undefined) | > 100 µM (inactive) | > 100 µM (inactive) | > 100 µM (inactive) | > 100 µM (inactive) | > 100 µM (inactive) | > 100 µM (inactive) | > 100 µM (inactive) | > 100 µM (inactive) | > 100 µM (inactive) | > 100 µM (inactive) | > 100 µM (inactive) | > 100 µM (inactive) | > 100 µM (inactive) | > 100 µM (inactive) | > 100 µM (inactive) | > 100 µM (inactive) | > 100 µM (inactive) | > 100 µM (inactive) | > 100 µM (inactive) | > 100 µM (inactive)
7 | c1c[nH]c(CN2CCN(Cc3ncc[nH]3)CC2)n1 | > 100 µM (inactive) | > 100 µM (inactive) | > 100 µM (inactive) | > 100 µM (inactive) | > 100 µM (inactive) | > 100 µM (inactive) | > 100 µM (inactive) | > 100 µM (inactive) | > 100 µM (inactive) | > 100 µM (inactive) | > 100 µM (inactive) | > 100 µM (inactive) | > 100 µM (inactive) | > 100 µM (inactive) | > 100 µM (inactive) | > 100 µM (inactive) | > 100 µM (inactive) | > 100 µM (inactive) | > 100 µM (inactive) | > 100 µM (inactive)
8 | COc1ccc(C(=O)c2sc(N(C)C)nc2-c2ccccc2)cc1 | 30.9 µM (inactive) | 26.1 µM (inactive) | 54.3 µM (inactive) | 18.1 µM (inactive) | 33 µM (inactive) | 37.4 µM (inactive) | 37.4 µM (inactive) | 6.4 µM (inactive) | – | 36.7 µM (inactive) | 58.7 µM (inactive) | 39.6 µM (inactive) | 37.9 µM (inactive) | 34.5 µM (inactive) | 28.9 µM (inactive) | 49 µM (inactive) | 21.6 µM (inactive) | 34 µM (inactive) | 43 µM (inactive) | 26.1 µM (inactive)
9 | O=C(NCCCCCCCN1CCCCCCC1)C(C1CCCCC1)C1CCCCC1 | 12.1 µM (inactive) | 2.09 µM (inactive) | 5.61 µM (inactive) | 7.93 µM (inactive) | 2.56 µM (inactive) | 3.34 µM (inactive) | 12 µM (inactive) | 7.67 µM (inactive) | 7.14 µM (inactive) | 11 µM (inactive) | 11.2 µM (inactive) | 13.1 µM (inactive) | 12.9 µM (inactive) | 12.9 µM (inactive) | 8.57 µM (inactive) | 13.8 µM (inactive) | 7.16 µM (inactive) | 2.42 µM (inactive) | 8.51 µM (inactive) | 14.3 µM (inactive)
10 | Cc1ccc(S(=O)(=O)CN2C(=O)C(c3ccccc3)(c3ccccc3)C23OC(c2ccc(Cl)cc2)=CC3=O)cc1 (centres undefined) | > 10 µM (inactive) | > 10 µM (inactive) | > 10 µM (inactive) | > 10 µM (inactive) | – | > 10 µM (inactive) | > 10 µM (inactive) | > 10 µM (inactive) | > 10 µM (inactive) | > 10 µM (inactive) | > 10 µM (inactive) | > 10 µM (inactive) | > 10 µM (inactive) | > 10 µM (inactive) | 4.07 µM (inactive) | > 10 µM (inactive) | > 10 µM (inactive) | > 10 µM (inactive) | > 10 µM (inactive) | > 10 µM (inactive)
11 | c1ccc(-c2cc(-c3cc(-c4ccccc4)n(-c4ccccc4)n3)nn2-c2ccccc2)cc1 | – | > 100 µM (inactive) | > 100 µM (inactive) | > 100 µM (inactive) | – | > 100 µM (inactive) | – | > 100 µM (inactive) | > 100 µM (inactive) | > 100 µM (inactive) | > 100 µM (inactive) | > 100 µM (inactive) | > 100 µM (inactive) | > 100 µM (inactive) | > 100 µM (inactive) | > 100 µM (inactive) | > 100 µM (inactive) | > 100 µM (inactive) | > 100 µM (inactive) | > 100 µM (inactive)
12 | COc1cccc2c1OC(c1ccc(C#N)cc1)C([N+](=O)[O-])=C2 (centres undefined) | 1.42 µM (inactive) | 1.38 µM (inactive) | 1.58 µM (inactive) | 1.52 µM (inactive) | – | 1.61 µM (inactive) | 1.91 µM (inactive) | 1.39 µM (inactive) | 0.908 µM (active) | 1.95 µM (inactive) | 1.91 µM (inactive) | 2.04 µM (inactive) | 3.11 µM (inactive) | 1.71 µM (inactive) | 1.88 µM (inactive) | 3.12 µM (inactive) | 1.5 µM (inactive) | 1.53 µM (inactive) | 1.86 µM (inactive) | 1.49 µM (inactive)
13 | O=C(Cn1c(C(=O)/C=C/c2ccc(Cl)c(Cl)c2)nc2ccccc21)c1ccccc1 | 33.3 µM (inactive) | 27.7 µM (inactive) | 24 µM (inactive) | 19.9 µM (inactive) | 23.8 µM (inactive) | 35.2 µM (inactive) | 17.9 µM (inactive) | 19.1 µM (inactive) | – | 17.6 µM (inactive) | 21.9 µM (inactive) | 16 µM (inactive) | 27.9 µM (inactive) | 31.6 µM (inactive) | 29.3 µM (inactive) | 32.9 µM (inactive) | 26.9 µM (inactive) | 16.9 µM (inactive) | 26.8 µM (inactive) | 32.1 µM (inactive)
14 | COc1ccc2c(c1)c1c(n2CCN2CCOCC2)-c2cccc(OC)c2CC1 | 36.8 µM (inactive) | 58.5 µM (inactive) | 24.2 µM (inactive) | 33.4 µM (inactive) | 16.9 µM (inactive) | 16.9 µM (inactive) | – | 44 µM (inactive) | > 100 µM (inactive) | 55.2 µM (inactive) | 33.3 µM (inactive) | 47.2 µM (inactive) | 44.6 µM (inactive) | 52.8 µM (inactive) | 23.7 µM (inactive) | 62.4 µM (inactive) | 23.5 µM (inactive) | 41.6 µM (inactive) | 40.1 µM (inactive) | 37.2 µM (inactive)
